Laboratory results from US5478808A, “2-amino-6,7-dihydroxy-4-thiaheptanoic acid derivatives, production and use thereof” (Takeda Chemical Industries, Ltd., priority 1992, dated 1995).

Key:
[1] = test system: bone marrow cells of BALB/c mice; assay: Enhancing proliferation of bone marrow cells of mice (MTT reduction method); type: cell-based, mouse; settings: concentration giving 1.3 or more times the proliferation of the group without test compound; 3 days incubation
Method: To an RPMI 1640 culture medium [Bio-Wittaker Inc. (hereinafter abbreviated as BW), USA] containing 2×10^6 /ml of bone marrow cells of BALB/c mice, 2 mM of L-glutamine, 20 ug/ml of gentamicin (Flow Laboratories, Inc., Scotland), 10% fetal calf serum (BW, USA) was added a test compound in an adequate concentration, which was incubated at 37° C. for 3 days in 5% carbon dioxide in air followed by determination of proliferation of the bone marrow cells by the MTT reduction method [Tada et al., Journal of Immunological Methods, Vol. 93, p.157, 1986].

[2] = test system: peripheral blood leukocytes of CDF1/Crj mice; assay: Enhancing the number of leukocytes in cyclophosphamide-treated mice; type: in vivo, mouse; settings: cyclophosphamide 150 mg/kg p.o., then compound 0.063 mg/kg/day s.c. for 5 days; mice without cyclophosphamide = 100%
Method: Six week old female CDF1/Crj mice (5 animals/group) were subjected to the experiment. […] From the next day, each animal was administered subcutaneously with the compound suspended in 5% glucose at the following dosages for five days once a day. On the next day after completion of the administration, about 100 μl of peripheral blood was collected from orbital vein using an EDTA-treated glass capillary. Then, the number of lekocytes was counted using a automatic cell analyzer (Sysmex K-2000, Toa Medical Electronics, Japan)

mouse = assay: Toxicity test, intraperitoneal; type: in vivo; settings: 100 mg/kg

Row | Substance | Minimal Effective Concentration (MEC) [1] | Number of leukocytes [2] | Mortality (mouse)
1 | (2R,6R)-2-amino-6,7-bis(PamO)-4-THT-NH(CH2)7 CO-Glu-OH hydrochloride [Compound 36] | < 0.156 ng/mL |  | 
2 | (2R,6R)-2-amino-6,7-bis(PamO)-4-THT-Gly-Gly-Gly-Glu-Thr-Thr-OH [Compound 2] | < 0.156 ng/mL | 102% | 
3 | (2S,6R)-2-amino-6,7-bis(PamO)-4-THT-Gly-Gly-Gly-Glu-Thr-Thr-OH [Compound 3] |  |  | No mouse administered intraperitoneally with Compound 3 at a dose of 100 mg/kg was found dead
